Assay results: patent US20140329776A1, “Mitochondria-Targeted Antioxidants for Treatment of Age-Related Brain Disorders” (MITOTECH S.A., priority 2011, published 2014)

What was measured:
Wistar rats [1] = details: open field test; cited from earlier work
Wistar rats [2] = assay: muscle strength measurement 4 hours after ethanol narcosis; assay type: in vivo, rat; details: SkQ1 250 nM after ethanol narcosis; p<0.05
Method: FIG. 6 is a graphic representation showing muscle strength measurement 4 hours after ethanol narcosis in % to intact control. *−p<0.05 to negative control, #−p<0.05 to intact control;
In these experiments, 6 groups of experimental animals (Wistar rats) were used. (1) The Intact Control group (n=12), had no ethanol narcosis, and were orally administered a normal isotonic 0.9% NaCl solution; (2) the Negative Control group (n=12) was orally administered a normal physiological solution after ethanol narcosis; (3) The SkQ1 50 nM control group (n=12) was orally administered SkQ1 in a concentration 50 nM after ethanol narcosis; (4) The SkQ1 250 nM control group (n=12) was orally administered SkQ1 in a concentration of 250 nM after ethanol narcosis; (5) The SkQ1 1250 nM control group (n=12) was orally administered SkQ1 in a concentration of 1250 nM after ethanol narcosis; (6) the SkQ1 1250 nM intr control group (n=13) was intraperitoneally administered SkQ1 in a concentration of 1250 nM after ethanol narcosis.
In the Negative Control group ethanol intoxication caused a decrease of locomotor activity compared to Intact Control group: decreased track length (p<0.05), movement time (p<0.05), mean speed (p<0.05) and increased immobilization time (p<0.05) (FIG. 4). […]

[3] = test system: chronically alcoholised rats; assay: Porsolt forced swimming test of chronically alcoholised rats; assay type: in vivo, rat; details: SkQ1 250 nM solution orally every two days for 20 days; p<0.05
Method: FIG. 11 is a graphic representation showing behavior parameters in the Porsolt forced swimming test of chronically alcoholised rats in % to intact control. (*−p<0.05 SKQ-1 to negative control); and
(§1) Male albino rats had free access to a 15% ethanol solution, as well as to food and water. After 6 months of alcoholisation, animals with average consumption more than 11 ml of 15% ethanol solution were divided into two even groups and subjected to the following treatment. The Negative Control group (n=16) (chronically alcoholised rats) were orally administered 1 ml per kg of isotonic 0.9% NaCl solution every two days for 20 days during alcohol deprivation. The SkQ1 group (n=17) (chronically alcoholised rats) were orally administered 1 ml per kg of SkQ1 250 nM solution every two days for 20 days during alcohol deprivation. The Intact Control group (n=10) (animals had no previous contact with ethanol) were orally administered 1 ml per kg of normal physiological solution every two days for 20 days.
(§2) After this course of drug administration, the effect on behavioral parameters was observed using the open field test, the elevated plus maze test, and the Porsolt forced swimming test.

[4] = test system: chronically alcoholised rats; assay: elevated plus maze test of chronically alcoholised rats; assay type: in vivo, rat; details: SkQ1 250 nM solution orally every two days for 20 days, vs Negative Control
Method: FIG. 10 is a graphic representation showing behavior parameters in the elevated plus-maze test of chronically alcoholised rats in % to intact control. (*−p<0.05; ** −p<0.005 to negative control; #—p<0.05, ##—p<0.01, to intact control);
as §1, §2

For `CC1=C(C)C(=O)C(CCCCCCCCCC[P+](c2ccccc2)(c2ccccc2)c2ccccc2)=CC1=O` [SkQ1, plastoquinonyl decyltriphenyl-phosphonium], the “difference in number of squares crossed between 14-month-old and 3-month-old rats” value (Wistar rats [1]) is listed as “abolished”, the muscle strength (Wistar rats [2]) is listed as “increasing” and the immobilization time [3] is listed as “less”. The “number of looking out from closed arms” value [4] was “increased”, the rearing ([4]; p<0.005) was “increased” and the “movement time in central zone” value ([4]; p<0.05) was “increased”. The “track length in closed arms” value ([4]; p<0.05) was “increased”.
